Source: PMC10900488, “Synthesis and Evaluation of (Bis)benzyltetrahydroisoquinoline Alkaloids as Antiparasitic Agents” (JACS Au, 2024)

test system: not listed separately; test: Mammalian toxicity, MTT colorimetric; format: cell-based, murine; conditions: mouse
Description: Table 1 depicts the antileishmanial (L. infantum) activity evaluation performed against both the amastigote form (evaluated microscopically using an ex vivo intracellular model of mice macrophages) and the promastigote one (using an MTT colorimetric method).[32],[33] The cytotoxicity was evaluated against NCTC cells using an MTT colorimetric method and the selectivity index was determined using the ratio between the CC50 values (NCTC cells) and the IC50 values (amastigotes).[32] […] With respect to the substituents on the C ring, larger, hydrophobic groups conferred greater bioactivity (e.g., 9b–d), whereas small, hydrophilic groups such as a hydroxyl group afford modest to poor bioactivity. […]
Murine conjunctive fibroblasts NCTC clone 929 (ATCC) were maintained in 10% foetal calf serum supplemented RPMI-1640 medium (pH 7.2) at 37 °C in a humidified incubator with 5% CO2. […]
(§1) Biological activity assays […]
NCTC cells (6 × 10^4/well) were added to a 96-well plate. Treatments of the cells with selected compounds (serially diluted 1.5 to 200 μM) was performed in a humidified incubator for 96 h at 37 °C and with 5% CO2.
The MTT colorimetric method was used to determine the 50% cytotoxic concentration (CC50) and the selectivity index (CC50 against NCTC cells/IC50 against amastigotes).15 […]
[…] At 6 h and 24 h post-treatment, a 1 mL aliquot was taken for imaging. The cell cycle experiment was preformed twice independently.
Generation of mNG::RAD51 tagged cell line
The single-stranded DNA-binding protein RAD51, associated with DNA Repair, LmxM.28.0550 was tagged with endogenous fluorescent protein mNeonGreen (mNG) at the N-terminus. […]
Primers for constructs and sgRNA were designed using LeishGEdit (http://www.leishGEdit.net).
PCR was at 94 °C for 5 min, followed by 35 cycles at 94 °C (15 sec), 65 °C (15 sec), 72 °C (2 min) then finally 72 °C (1 min).
PCR was at 94 °C for 30 sec, followed by 30 cycles at 94 °C (30 sec), 60 °C (30 sec), 72 °C (30 sec) then finally 72 °C (2 min). […] Combined PCR products were precipitated for 20 min with 10 μL 3M sodium acetate and 300 μL EtOH, pelleted at 14000 min-1 30 min, washed once with 70% EtOH, re-pelleted and resuspended in […]
Promastigotes (1 × 10^7 cells) were combined with PCR products and transfected using the Amaxa Nucleofector II.17 Electroporation was performed using 2 mm cuvettes on the X-100 program, followed by immediate suspension in pre-warmed M199 medium. Successful transfectants were selected with 20 μg mL-1 Puromycin 15 h after transfection, taking 4 days to reach stable growth in culture. mNG::RAD51 nuclear foci studies mNG::RAD51 promastigotes (5 × 10^6 cells mL-1) in 7 mL of M199 medium were treated with 7 μL o f compound (S)-9a or (S)-9b dissolved in DMSO giving a final concentration of 50 μM. Phleomycin was used as a positive control at a final concentration of 25 μg mL-1. At T = 0, 15, 30, 60 min, and 2, 6, 24 h post-treatment a 0.8 mL aliquot was taken for imaging.

SMILES | CC50 at 96 h [µM]
COc1cc2c(cc1OC)[C@@H](Cc1ccc(O)cc1)N(C)CC2 [(R)-10b, (–)-armepavine] | > 200
COc1cc2c(cc1OC)[C@@H](Cc1ccc(Oc3cc(C[C@@H]4c5cc(OC)c(OC)cc5CCN4C)ccc3OC)cc1)N(C)CC2 [(R,R)-11, (−)-O-methyldauricine] | 11.4 ± 4.8
COc1ccc(COc2ccc(C[C@@H]3c4cc(OC)c(OC)cc4CCN3C)cc2Oc2ccc(C[C@@H]3c4cc(OC)c(OC)cc4CCN3C)cc2)cc1 [(R,R)-12] | 13.9 ± 1.6
COc1cc2c(cc1OC)[C@@H](Cc1ccc(Oc3cc(C[C@@H]4c5cc(OC)c(OC)cc5CCN4C)ccc3O)cc1)N(C)CC2 [(R,R)-13, (–)-dauricine] | 7 ± 1

test system: L. infantum promastigotes; test: Antipromastigote assay (L. infantum), MTT colorimetric; format: cell-based, Leishmania (L.) infantum; conditions: Leishmania infantum; ± SD; MTT, 48 h; read-out: L. infantum IC50 promastigotes
Description: (§2) Table 1 depicts the antileishmanial (L. infantum) activity evaluation performed against both the amastigote form (evaluated microscopically using an ex vivo intracellular model of mice macrophages) and the promastigote one (using an MTT colorimetric method).[32],[33] The cytotoxicity was evaluated against NCTC cells using an MTT colorimetric method and the selectivity index was determined using the ratio between the CC50 values (NCTC cells) and the IC50 values (amastigotes).[32] […] With respect to the substituents on the C ring, larger, hydrophobic groups conferred greater bioactivity (e.g., 9b–d), whereas small, hydrophilic groups such as a hydroxyl group afford modest to poor bioactivity.
(§3) Leishmania (L.) infantum (MHOM/BR/1972/LD) amastigotes were obtained from golden hamsters (Mesocricetus auratus) spleens following 60-70 days of infection via differential centrifugation. The Stauber method was used to determine the number of parasites.12 […]
Biological activity assays
Antipromastigote Assay (L. infantum)
L. infantum promastigotes (1 × 10^6 cells/well) were added to a 96-well plates. Treatment of the cells with selected compounds (serially diluted 0.14 to 200 μM) was performed in M199 medium supplemented with 0.25% hemin and 10% fetal bovine serum for 48 h at 24 °C. The MTT colorimetric assay was used to determine the activity (IC50) of the compounds. Miltefosine was used as a standard drug and untreated promastigotes were used as a negative control. The half inhibitory concentration (IC50) was determined from a sigmoidal regression of the concentration-response curves generated in GraphPadPrism7. […]

IC50 [nM] | SMILES
4800 ± 800 | COc1cc2c(cc1OC)[C@@H](Cc1ccc(O)cc1)N(C)CC2 [(R)-10b, (–)-armepavine]
700 ± 100 | COc1cc2c(cc1OC)[C@@H](Cc1ccc(Oc3cc(C[C@@H]4c5cc(OC)c(OC)cc5CCN4C)ccc3OC)cc1)N(C)CC2 [(R,R)-11, (−)-O-methyldauricine]
1100 ± 500 | COc1ccc(COc2ccc(C[C@@H]3c4cc(OC)c(OC)cc4CCN3C)cc2Oc2ccc(C[C@@H]3c4cc(OC)c(OC)cc4CCN3C)cc2)cc1 [(R,R)-12]

SMILES | IC50 [nM]
COc1cc2c(cc1OC)[C@@H](Cc1ccc(Oc3cc(C[C@@H]4c5cc(OC)c(OC)cc5CCN4C)ccc3O)cc1)N(C)CC2 [(R,R)-13, (–)-dauricine] | 3200 ± 1100

test system: T. cruzi trypomastigotes; test: Antitrypomastigote assay (T. cruzi), resazurin; format: cell-based, Trypanosoma (T.) cruzi; conditions: Trypanosoma cruzi, 24 h, ± SD, resazurin, read-out: T. cruzi IC50 trypomastigotes
Description: (§4) T. cruzi also assumes several cell morphologies during its lifecycle, which differ between the insect vector and mammalian host. In the latter environment, the parasite transitions between extracellular bloodstream trypomastigotes and intracellular amastigotes; both forms are clinically relevant, particularly during the acute stage of Chagas disease.[34] In this work, antitrypanosomal activity was tested against both the amastigote form (evaluated microscopically using an ex vivo intracellular model using mice macrophages) and the trypomastigote form (using the resazurin in vitro assay).[33],[35] […] In silico predictions of pharmacokinetic profiles were carried out using the SwissADME webtool (see the Supporting Information for details).[36] […]
(§5) […] Cultivation was performed in 2% fetal calf serum supplemented RPMI-1640 medium.
(§6) The trypomastigotes were maintained in a humidified incubator at 37 °C and with 5% CO2. […]
as §1
The half inhibitory concentration (IC50) was determined from a sigmoidal regression of the concentration-response curves generated in GraphPadPrism7. […]
Treatment of the cells with selected compounds (serially diluted 1.2 to 150 μM) was performed in a humidified incubator in RPMI 1640 medium for 24 h at 37 °C and with 5% CO2. Resazurin (0.011% in PBS) was added subsequently to verify parasite viability. Benznidazole was used as a standard drug. The optical density was determined at 570 nm using the FilterMax F5 (Molecular Devices). […]

IC50 [µM] | SMILES
107 ± 1.8 | COc1cc2c(cc1OC)[C@@H](Cc1ccc(O)cc1)N(C)CC2 [(R)-10b, (–)-armepavine]
7.2 ± 0.6 | COc1cc2c(cc1OC)[C@@H](Cc1ccc(Oc3cc(C[C@@H]4c5cc(OC)c(OC)cc5CCN4C)ccc3OC)cc1)N(C)CC2 [(R,R)-11, (−)-O-methyldauricine]
7.3 ± 1.5 | COc1ccc(COc2ccc(C[C@@H]3c4cc(OC)c(OC)cc4CCN3C)cc2Oc2ccc(C[C@@H]3c4cc(OC)c(OC)cc4CCN3C)cc2)cc1 [(R,R)-12]

SMILES | IC50 [µM]
COc1cc2c(cc1OC)[C@@H](Cc1ccc(Oc3cc(C[C@@H]4c5cc(OC)c(OC)cc5CCN4C)ccc3O)cc1)N(C)CC2 [(R,R)-13, (–)-dauricine] | 3.7 ± 2.9

test system: T. cruzi amastigotes; test: Antiamastigote assay (T. cruzi), ex vivo intracellular model using mice macrophages, microscopy; format: cell-based, Trypanosoma (T.) cruzi; conditions: Trypanosoma cruzi, Peritoneal macrophage, 48 h, ± SD, read-out: T. cruzi IC50 amastigotes
Description: as §4, §5, §6
(§7) Peritoneal macrophages were obtained via washing the peritoneal cavity of BALB/c mice with 10% foetal calf serum supplemented RPMI-1640 medium (pH 7.2). The macrophages were maintained in a humidified incubator at 37 °C and with 5% CO2.
as §1
Peritoneal macrophages (1 × 10^5 cells/well) obtained from the peritoneal cavity of BALB/C mice were added to 16-well chambers (NUNC, Thermo Fischer Scientific). The cells were infected with trypomastigotes (10:1 parasites/macrophage) for 2 h. Then treatment of the infected macrophages with selected compounds (serially diluted 1.2 to 100 μM) was performed in a humidified incubator for 48 h at 37 °C and with 5% CO2. The treated cells were fixed on slides using methanol, stained with Giemsa and observed under a light microscope (EVOS M5000, Thermo, USA) with digital image equipment. The infection index was used in order to determine the half inhibitory concentration (IC50) (no. infected macrophages × no. amastigotes / total no.

IC50 [µM] | SMILES
> 100 | COc1cc2c(cc1OC)[C@@H](Cc1ccc(O)cc1)N(C)CC2 [(R)-10b, (–)-armepavine]
1.5 ± 0.2 | COc1cc2c(cc1OC)[C@@H](Cc1ccc(Oc3cc(C[C@@H]4c5cc(OC)c(OC)cc5CCN4C)ccc3OC)cc1)N(C)CC2 [(R,R)-11, (−)-O-methyldauricine]
> 100 | COc1ccc(COc2ccc(C[C@@H]3c4cc(OC)c(OC)cc4CCN3C)cc2Oc2ccc(C[C@@H]3c4cc(OC)c(OC)cc4CCN3C)cc2)cc1 [(R,R)-12]

SMILES | IC50 [µM]
COc1cc2c(cc1OC)[C@@H](Cc1ccc(Oc3cc(C[C@@H]4c5cc(OC)c(OC)cc5CCN4C)ccc3O)cc1)N(C)CC2 [(R,R)-13, (–)-dauricine] | > 100

test system: L. infantum amastigotes; test: Antiamastigote assay (L. infantum), ex vivo intracellular model of mice macrophages, microscopy; format: cell-based, Leishmania (L.) infantum; conditions: Leishmania infantum, Peritoneal macrophage, 96 h, ± SD, intracellular, peritoneal macrophages, read-out: L. infantum IC50 amastigotes
Description: as §2, §3, §7, §1
Antiamastigote Assay (L. infantum)
Peritoneal macrophages (1 × 10^5/well) were added to a 16-well slide chambers (NUNC) and incubated with 5% CO2 at 37 °C. The cells were subsequently infected with L. infantum amastigotes (10:1 amastigotes/macrophage) for 24 h. Treatment of the cells with selected compounds (serially diluted 1.2 to 150 μM) was performed in a humidified incubator for 96 h at 37 °C and with 5% CO2. Untreated cells were used as a negative control and miltefosine was used as a standard drug. The treated cells were fixed on slides with methanol, stained with Giemsa and observed under a light microscope.13 The infection index was used in order to determine the half inhibitory concentration (IC50) (no. infected macrophages × no. amastigotes / total no. […]

IC50 [µM] | SMILES
> 150 | COc1cc2c(cc1OC)[C@@H](Cc1ccc(O)cc1)N(C)CC2 [(R)-10b, (–)-armepavine]
> 150 | COc1cc2c(cc1OC)[C@@H](Cc1ccc(Oc3cc(C[C@@H]4c5cc(OC)c(OC)cc5CCN4C)ccc3OC)cc1)N(C)CC2 [(R,R)-11, (−)-O-methyldauricine]
> 150 | COc1ccc(COc2ccc(C[C@@H]3c4cc(OC)c(OC)cc4CCN3C)cc2Oc2ccc(C[C@@H]3c4cc(OC)c(OC)cc4CCN3C)cc2)cc1 [(R,R)-12]

SMILES | IC50 [µM]
COc1cc2c(cc1OC)[C@@H](Cc1ccc(Oc3cc(C[C@@H]4c5cc(OC)c(OC)cc5CCN4C)ccc3O)cc1)N(C)CC2 [(R,R)-13, (–)-dauricine] | 3.7 ± 0.6
